Values of other authors, collected in publication PMC10620772, “Design, synthesis, and biological evaluation of new pyrimidine-5-carbonitrile derivatives as novel anti-cancer, dual EGFR^WT/COX-2 inhibitors with docking studies” (RSC Advances, 2023).

Legend:
MALME-3M = tested on: MALME-3M; parameters: method as in PMID 32115728, PMID 32959865; conditions: cited from earlier work
[1] = parameters: method as in PMID 26764192, PMID 22249410, PMID 21414695; conditions: cited from earlier work
HepG2 = tested on: HepG2; parameters: method as in PMID 32115728, PMID 32959865; conditions: antiproliferation; cited from earlier work

Q: With `CC(C)CSc1nc(Nc2ccc(C(=O)O)cc2)c(C#N)c(-c2ccccc2)n1` [F] as the compound, how does the GI value (MALME-3M) read?
A: The GI value was 152.04%.

Q: Which “antinociceptive activity compared to control” value [1] does the source give for `COc1ccc(-c2nc(-c3ccc(Cl)cc3)[nH]c(=O)c2C#N)cc1` [I] here?
A: Its value is “more than 88%”.

Q: For `C=CCSc1nc(Nc2ccccc2)c(C#N)c(-c2ccccc2)n1` [E], which IC50 (HepG2) is on record?
A: The IC50 was 3.56 µM.
